From patent publication US7928140B2, “Benzothiazole PI3 kinase modulators for cancer treatment” (Amgen Inc., priority 2007, dated 2011)

Legend:
PI3K β = molecular target: T1, PI3K β (Homo sapiens, UniProt P42338); test: In vitro PI3 kinase enzyme assay (beta), ATP loss, bioluminescence; assay type: biochemical; conditions: read-out: PI3Kβ ATP loss IC50;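 also: purified p110β/p85 heterodimer with PtdIns(4,5)P2 as acceptor, incubated at room temperature, leftover ATP read by luminescence, inhibition scaled to compound-free wells with and without enzyme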
T1 construct: Full length p110 subunits of PI3K α, β and δ, N-terminally labeled with polyHis tag; polyHis (N); made in house; host or cells: Sf9 insect cells (baculovirus)

PI3K α = molecular target: T2, PI3K α (Homo sapiens, UniProt P42336); test: In vitro PI3 kinase enzyme assay (alpha), ATP loss, bioluminescence; assay type: biochemical; conditions: read-out: PI3Kα ATP loss IC50;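 also: purified p110α/p85 heterodimer acting on PtdIns(4,5)P2 at room temperature, remaining ATP read by luminescence, inhibition scaled between compound-free wells with and without enzyme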
T2 construct: Full length p110 subunits of PI3K α, β and δ, N-terminally labeled with polyHis tag; polyHis (N); made in house; host or cells: Sf9 insect cells (baculovirus)
T2 sequence (P42336 whole entry, species assumed): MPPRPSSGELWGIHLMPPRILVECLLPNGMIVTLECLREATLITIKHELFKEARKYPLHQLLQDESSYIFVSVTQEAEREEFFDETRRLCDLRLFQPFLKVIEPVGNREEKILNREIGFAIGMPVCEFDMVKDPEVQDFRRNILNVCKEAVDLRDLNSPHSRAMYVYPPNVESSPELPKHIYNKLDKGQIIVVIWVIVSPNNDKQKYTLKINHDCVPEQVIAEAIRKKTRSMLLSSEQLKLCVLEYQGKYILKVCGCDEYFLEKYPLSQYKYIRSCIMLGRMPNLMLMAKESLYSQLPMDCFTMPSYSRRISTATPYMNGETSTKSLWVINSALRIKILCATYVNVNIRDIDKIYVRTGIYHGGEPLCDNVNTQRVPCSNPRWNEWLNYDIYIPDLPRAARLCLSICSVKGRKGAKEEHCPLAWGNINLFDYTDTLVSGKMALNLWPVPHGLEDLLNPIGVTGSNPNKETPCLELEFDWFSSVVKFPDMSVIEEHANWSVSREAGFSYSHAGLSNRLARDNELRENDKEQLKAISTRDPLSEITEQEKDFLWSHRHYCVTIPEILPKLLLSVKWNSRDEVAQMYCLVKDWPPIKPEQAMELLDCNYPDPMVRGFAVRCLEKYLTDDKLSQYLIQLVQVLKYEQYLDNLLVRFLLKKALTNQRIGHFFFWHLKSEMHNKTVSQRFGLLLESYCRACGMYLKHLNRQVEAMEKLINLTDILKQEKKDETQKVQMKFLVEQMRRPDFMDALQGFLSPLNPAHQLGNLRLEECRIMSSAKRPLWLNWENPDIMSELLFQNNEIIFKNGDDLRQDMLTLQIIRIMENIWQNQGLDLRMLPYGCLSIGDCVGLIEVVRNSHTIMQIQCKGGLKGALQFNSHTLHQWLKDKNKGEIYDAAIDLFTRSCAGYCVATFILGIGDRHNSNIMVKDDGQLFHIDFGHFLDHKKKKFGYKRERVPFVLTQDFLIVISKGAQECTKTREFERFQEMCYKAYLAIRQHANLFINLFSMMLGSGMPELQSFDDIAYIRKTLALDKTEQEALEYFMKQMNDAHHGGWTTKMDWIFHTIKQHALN
T2 sequence (P27986 whole entry partner, species assumed): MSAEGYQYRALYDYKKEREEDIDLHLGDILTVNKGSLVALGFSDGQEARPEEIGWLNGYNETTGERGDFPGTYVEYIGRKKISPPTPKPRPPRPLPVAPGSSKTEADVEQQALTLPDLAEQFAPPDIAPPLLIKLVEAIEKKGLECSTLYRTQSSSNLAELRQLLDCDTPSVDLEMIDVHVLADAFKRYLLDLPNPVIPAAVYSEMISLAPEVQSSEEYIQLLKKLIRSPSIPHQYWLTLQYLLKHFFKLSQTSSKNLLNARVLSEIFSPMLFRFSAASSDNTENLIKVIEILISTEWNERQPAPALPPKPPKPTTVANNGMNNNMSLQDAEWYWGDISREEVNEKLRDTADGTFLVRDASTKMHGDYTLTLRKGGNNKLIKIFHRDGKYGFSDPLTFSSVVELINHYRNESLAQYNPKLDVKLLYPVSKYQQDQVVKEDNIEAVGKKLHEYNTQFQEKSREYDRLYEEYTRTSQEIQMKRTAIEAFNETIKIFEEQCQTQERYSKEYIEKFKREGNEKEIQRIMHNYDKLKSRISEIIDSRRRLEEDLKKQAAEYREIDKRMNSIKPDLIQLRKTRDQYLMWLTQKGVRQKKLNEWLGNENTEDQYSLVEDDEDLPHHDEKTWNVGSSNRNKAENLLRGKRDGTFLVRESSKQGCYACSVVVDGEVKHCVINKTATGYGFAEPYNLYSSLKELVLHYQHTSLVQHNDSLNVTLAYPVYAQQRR

T1 sequence (P42338 whole entry): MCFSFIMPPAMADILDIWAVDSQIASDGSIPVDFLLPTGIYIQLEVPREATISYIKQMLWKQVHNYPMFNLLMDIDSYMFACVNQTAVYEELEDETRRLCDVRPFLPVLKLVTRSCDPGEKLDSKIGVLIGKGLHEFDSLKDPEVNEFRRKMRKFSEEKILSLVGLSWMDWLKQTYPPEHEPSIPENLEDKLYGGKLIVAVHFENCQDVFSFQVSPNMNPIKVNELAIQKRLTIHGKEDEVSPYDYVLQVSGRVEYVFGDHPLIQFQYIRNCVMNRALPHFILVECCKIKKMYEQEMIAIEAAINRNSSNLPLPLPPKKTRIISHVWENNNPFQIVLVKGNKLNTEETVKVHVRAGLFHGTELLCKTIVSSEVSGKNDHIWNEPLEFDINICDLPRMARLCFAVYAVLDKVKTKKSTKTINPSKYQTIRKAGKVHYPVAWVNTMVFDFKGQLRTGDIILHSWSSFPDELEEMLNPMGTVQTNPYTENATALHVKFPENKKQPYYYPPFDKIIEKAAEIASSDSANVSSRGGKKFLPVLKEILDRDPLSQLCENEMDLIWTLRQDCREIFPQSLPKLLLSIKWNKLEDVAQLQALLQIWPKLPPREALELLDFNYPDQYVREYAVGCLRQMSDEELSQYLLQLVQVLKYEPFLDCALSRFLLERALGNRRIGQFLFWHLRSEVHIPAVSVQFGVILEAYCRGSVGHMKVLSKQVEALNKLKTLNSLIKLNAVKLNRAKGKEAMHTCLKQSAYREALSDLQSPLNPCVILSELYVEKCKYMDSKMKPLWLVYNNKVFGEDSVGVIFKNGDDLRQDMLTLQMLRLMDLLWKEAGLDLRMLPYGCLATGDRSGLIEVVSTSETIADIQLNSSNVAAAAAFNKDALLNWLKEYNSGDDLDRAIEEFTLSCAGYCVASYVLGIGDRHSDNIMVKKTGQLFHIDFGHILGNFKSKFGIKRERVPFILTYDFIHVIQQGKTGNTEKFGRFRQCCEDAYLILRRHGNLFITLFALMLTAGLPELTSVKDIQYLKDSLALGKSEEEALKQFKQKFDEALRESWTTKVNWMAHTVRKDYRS
T1 sequence (P27986 whole entry partner): as the sequence (P27986 whole entry partner, species assumed) above

Row | IC50 (PI3K β) | IC50 (PI3K α) | Structure (SMILES)
1 | > 40000 nM | 211 nM | COCCOCOc1cc(-c2ccc3nc(NC(C)=O)sc3c2)cnc1C(F)(F)F [Example 293, N-(6-(5-((2-methoxyethoxy)methoxy)-6-(trifluoromethyl)pyridin-3-yl)benzo[d]thiazol-2-yl)acetamide]
2 | 322 nM | 17.8 nM | CC(=O)Nc1nc2ccc(-c3nnc(NS(=O)(=O)c4ccc(F)cc4)o3)cc2s1 [Example 164, N-(6-(5-(4-Fluorophenylsulfonamido)-1,3,4-oxadiazol-2-yl)benzo[d]thiazol-2-yl)acetamide]
3 | > 40000 nM | 156 nM | CCOc1ccc(-c2ccc3nc(NC(C)=O)sc3c2)cn1 [Example 243, N-(6-(6-ethoxypyridin-3-yl)benzo[d]thiazol-2-yl)acetamide]
4 | > 40000 nM | 288 nM | CC(=O)Nc1nc2ccc(-c3cccc4[nH]ncc34)cc2s1 [Example 99, N-(6-(1H-Indazol-4-yl)benzo[d]thiazol-2-yl)acetamide]
5 | 134 nM | 83.6 nM | CC(=O)Nc1nc2ccc(-c3ccnc(Sc4cccc(Cl)c4)n3)cc2s1 [Example 140, N-(6-(2-((3-chlorophenyl)sulfanyl)-4-pyrimidinyl)-1,3-benzothiazol-2-yl)acetamide]
6 | > 40000 nM | 221 nM | CC(=O)Nc1nc2ccc(-c3cccc(S(=O)(=O)c4ccccc4)n3)cc2s1 [Example 65, N-(6-(6-(phenylsulfonyl)pyridin-2-yl)benzo[d]thiazol-2-yl)acetamide]
7 | 26700 nM | 10700 nM | CC(=O)Nc1nc2ccc(-c3ccnc(OCC4CCN(C)CC4)n3)cc2s1 [Example 25, N-(6-(2-((1-methyl-4-piperidinyl)methoxy)-4-pyrimidinyl)-1,3-benzothiazol-2-yl)acetamide]
8 | > 40000 nM | 18100 nM | COCCNc1nccc(-c2ccc3nc(N)sc3c2)n1 [Example 48, 6-(2-((2-methoxyethyl)amino)-4-pyrimidinyl)-1,3-benzothiazol-2-amine]
9 | > 40000 nM | 664 nM | CC(=O)Nc1nc2ccc(-c3cnc4c(c3)NC(C)(C)N4C)cc2s1 [Example 157, N-(6-(2,2,3-trimethyl-2,3-dihydro-1H-imidazo[4,5-b]pyridin-6-yl)benzo[d]thiazol-2-yl)acetamide]
10 | 24100 nM | 1180 nM | CC(=O)Nc1nc2ccc(-c3cncc(OCCN4CCC(F)(F)C4=O)c3)cc2s1 [Example 254]
11 | 404 nM | 354 nM | CC(=O)Nc1nc2ccc(-c3ccnc(N(C)S(=O)(=O)c4ccc5ncccc5c4)n3)cc2s1 [Example 204, N-(6-(2-(N-methylquinoline-6-sulfonamido)pyrimidin-4-yl)benzo[d]thiazol-2-yl)acetamide]
12 | 32200 nM | 1100 nM | CC(=O)Nc1nc2ccc(-c3ccnc(OCCc4cccnc4)n3)cc2s1 [Example 18, N-(6-(2-(2-(3-pyridinyl)ethoxy)-4-pyrimidinyl)-1,3-benzothiazol-2-yl)acetamide]
13 | 1050 nM | 80.7 nM | CC(=O)Nc1nc2ccc(-c3ccnc(Sc4ccc(Br)cc4)n3)cc2s1 [Example 139, N-(6-(2-((4-bromophenyl)sulfanyl)-4-pyrimidinyl)-1,3-benzothiazol-2-yl)acetamide]
14 | 1840 nM | 284 nM | CC(=O)Nc1nc2ccc(-c3cnc(OCCCN(C)C)c(NC(C)C)c3)cc2s1 [Example 153, N-(6-(6-(3-(dimethylamino)propoxy)-5-((1-methylethyl)amino)-3-pyridinyl)-1,3-benzothiazol-2-yl)acetamide]
15 | > 40000 nM | 7980 nM | CC(=O)Nc1nc2ccc(-c3ccnc(O)n3)cc2s1 [Example 53, N-(6-(2-hydroxy-4-pyrimidinyl)-1,3-benzothiazol-2-yl)acetamide]
16 | 1440 nM | 3830 nM | Nc1nc2ccc(-c3cccc(NS(=O)(=O)c4ccccc4)n3)cc2s1 [Example 71, N-(6-(2-Aminobenzo[d]thiazol-6-yl)pyridin-2-yl)benzenesulfonamide]
17 | 45600 nM | 1540 nM | CC(=O)Nc1nc2ccc(-c3cncc(OCCN4CCC(C)C4=O)c3)cc2s1 (stereo not shown) [Example 253]
18 | > 40000 nM | 11100 nM | CC(=O)Nc1nc2ccc(-c3ccnc(OCCCN(C)C)n3)cc2s1 [Example 8]
19 | 3350 nM | 300 nM | CC(=O)Nc1nc2ccc(-c3cccc(S(=O)(=O)c4cccc(F)c4)n3)cc2s1 [Example 67, N-(6-(6-((3-fluorophenyl)sulfonyl)-2-pyridinyl)-1,3-benzothiazol-2-yl)acetamide]
20 | > 40000 nM | 6070 nM | CC(=O)Nc1nc2ccc(-c3ccnc(OCCN(C)C)n3)cc2s1 [Example 9]
21 | 7750 nM | 26700 nM | CC(C)(O)C(=O)Nc1nc2ccc(-c3ccnc(OCc4ccccc4)n3)cc2s1 [Example 55, N-(6-(2-(benzyloxy)-4-pyrimidinyl)-1,3-benzothiazol-2-yl)-2-hydroxy-2-methylpropanamide]

Row | IC50 (PI3K β) | IC50 (PI3K α) | Structure (SMILES)
22 | 1540 nM | 285 nM | COc1ccccc1S(=O)(=O)c1cccc(-c2ccc3nc(NC(C)=O)sc3c2)n1 [Example 70, N-(6-(6-((2-methoxyphenyl)sulfonyl)-2-pyridinyl)-1,3-benzothiazol-2-yl)acetamide]
23 | 1350 nM | 116 nM | Oc1cc(-c2ccc3ncsc3c2)cnc1Cl [Example 334, 5-(1,3-benzothiazol-6-yl)-2-chloro-3-pyridinol]
24 | 24800 nM | 998 nM | COc1ccc(-c2cccc3nc(NC(C)=O)sc23)cc1F [Example 94]
25 | 522 nM | 33.9 nM | CC(=O)Nc1nc2ccc(-c3ccnc(Sc4ccc(C)c(C)c4)n3)cc2s1 [Example 128, N-(6-(2-((3,4-dimethylphenyl)sulfanyl)-4-pyrimidinyl)-1,3-benzothiazol-2-yl)acetamide]
26 | 864 nM | 275 nM | CNc1ncc(-c2ccc3nc(NC(C)=O)sc3c2)cc1N [Example 152, N-(6-(5-amino-6-(methylamino)pyridin-3-yl)benzo[d]thiazol-2-yl)acetamide]
27 | 2400 nM | 333 nM | CC(=O)Nc1ccc(Sc2nccc(-c3ccc4nc(NC(C)=O)sc4c3)n2)cc1 [Example 29, N-(4-((4-(2-(acetylamino)-1,3-benzothiazol-6-yl)-2-pyrimidinyl)sulfanyl)phenyl)acetamide]
28 | 11900 nM | 4140 nM | CC(=O)Nc1nc2ccc(-c3cncc(OCCN4CCCCC4)c3)cc2s1 [Example 233, N-(6-(5-(2-(piperidin-1-yl)ethoxy)pyridin-3-yl)benzo[d]thiazol-2-yl)acetamide]
29 | 3330 nM | 539 nM | CC(=O)Nc1nc2ccc(-c3cncc(N(C)S(=O)(=O)c4ccc(Cl)cc4)c3)cc2s1 [Example 220, N-(6-(5-(4-chloro-N-methylphenylsulfonamido)pyridin-3-yl)benzo[d]thiazol-2-yl)acetamide]
30 | 2070 nM | 115 nM | CN(C)c1cc(-c2ccc3nc(NC(=O)NCCN4CCOCC4)sc3c2)cnc1Cl [Example 273, 1-(6-(6-chloro-5-(dimethylamino)pyridin-3-yl)benzo[d]thiazol-2-yl)-3-(2-morpholinoethyl)urea]
31 | 10000 nM | 3140 nM | CC(=O)Nc1nc2ccc(-c3cccc4sc(=O)[nH]c34)cc2s1 [Example 98, N-(6-(2-oxo-2,3-Dihydrobenzo[d]thiazol-4-yl)benzo[d]thiazol-2-yl)acetamide]
32 | 18900 nM | 2740 nM | CC(=O)Nc1nc2ccc(-c3ccnc(N4CCOCC4)n3)cc2s1 [Example 160, N-(6-(2-(4-morpholinyl)-4-pyrimidinyl)-1,3-benzothiazol-2-yl)acetamide]
33 | 1610 nM | 2620 nM | CC(=O)Nc1nc2ccc(-c3ccnc(N4CCCC4c4ccccc4)n3)cc2s1 (racemic) [Example 266, N-(6-(2-(2-phenylpyrrolidin-1-yl)pyrimidin-4-yl)benzo[d]thiazol-2-yl)acetamide]
34 | 12400 nM | 256 nM | COc1cc(Cl)ncc1-c1ccc2nc(NC(C)=O)sc2c1 [Example 246, N-(6-(6-chloro-4-methoxypyridin-3-yl)benzo[d]thiazol-2-yl)acetamide]
35 | 19300 nM | 2790 nM | CC(=O)Nc1nc2ccc(-c3cncc(OCCN4CCOCC4)c3)cc2s1 [Example 230, N-(6-(5-(2-morpholinoethoxy)pyridin-3-yl)benzo[d]thiazol-2-yl)acetamide]
36 | > 40000 nM | 601 nM | CC(=O)Nc1nc2ccc(-c3ccnc(OCCCN4CCOC4=O)n3)cc2s1 [Example 32, N-(6-(2-(3-(2-oxo-1,3-oxazolidin-3-yl)propoxy)-4-pyrimidinyl)-1,3-benzothiazol-2-yl)acetamide]
37 | 8110 nM | 717 nM | CC(=O)Nc1nc2ccc(-c3ccc(OC(F)F)nc3)cc2s1 [Example 249, N-(6-(6-(difluoromethoxy)pyridin-3-yl)benzo[d]thiazol-2-yl)acetamide]
38 | > 40000 nM | 540 nM | CC(=O)Nc1nc2ccc(-c3ccnc(OCCO)n3)cc2s1 [Example 104, N-(6-(2-(2-hydroxyethoxy)-4-pyrimidinyl)-1,3-benzothiazol-2-yl)acetamide]
39 | 384 nM | 222 nM | COc1ccc(S(=O)(=O)Nc2cc(-c3ccc4nc(SC)sc4c3)cnc2Cl)cc1 [Example 327, N-(2-chloro-5-(2-(methylsulfanyl)-1,3-benzothiazol-6-yl)-3-pyridinyl)-4-methoxybenzenesulfonamide]
40 | > 40000 nM | 1910 nM | CC(=O)Nc1nc2ccc(-c3cnccc3CO)cc2s1 [Example 251, N-(6-(4-(hydroxymethyl)pyridin-3-yl)benzo[d]thiazol-2-yl)acetamide]
41 | > 40000 nM | 21800 nM | Cc1nc2ccc(-c3cc(O)c(C(F)(F)F)nc3F)cc2s1 [Example 341, 6-fluoro-5-(2-methyl-1,3-benzothiazol-6-yl)-2-(trifluoromethyl)-3-pyridinol]
